Measured values reported in the supplement of paper PMC10307832.

How the values were obtained:
Experiment in all cases: relative viability (nuclei count vs DMSO), 5 days (fraction); higher = more cells survive
A-427 = tested on: A-427
In short: (§1)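 Lung cancer cell lines in 1536-well plates got either a single drug or a fixed anchor-drug dose together with five library-drug doses (not always all listed) in √10 steps, by pin tool, on the day after seeding. Nuclei were counted after 5 days, and relative viability is the treated-to-vehicle ratio of nuclei counts. Values are medians of duplicate plates.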

ABC-1 = tested on: ABC-1
In short: as §1

CAL-12T = tested on: CAL-12T
In short: as §1

H3255 = tested on: H3255
In short: as §1

LCLC-97TM1 = tested on: LCLC-97TM1
In short: as §1

LK-2 = tested on: LK-2
In short: as §1

NCI-H1355 = tested on: NCI-H1355
In short: as §1

NCI-H1395 = tested on: NCI-H1395
In short: as §1

NCI-H1651 = tested on: NCI-H1651
In short: as §1

NCI-H1666 = tested on: NCI-H1666
In short: as §1

NCI-H1792 = tested on: NCI-H1792
In short: as §1

NCI-H1915 = tested on: NCI-H1915
In short: as §1

NCI-H2085 = tested on: NCI-H2085
In short: as §1

NCI-H2087 = tested on: NCI-H2087
In short: as §1

NCI-H2228 = tested on: NCI-H2228
In short: as §1

NCI-H322M = tested on: NCI-H322M
In short: as §1

NCI-H358 = tested on: NCI-H358
In short: as §1

NCI-H661 = tested on: NCI-H661
In short: as §1

NCI-H838 = tested on: NCI-H838
In short: as §1

PC-14 = tested on: PC-14
In short: as §1

PC-3 [JPC-3] = tested on: PC-3 [JPC-3]
In short: as §1

SK-MES-1 = tested on: SK-MES-1
In short: as §1

UMC-11 = tested on: UMC-11
In short: as §1

For `O=C(O)CCCCC(CCSCc1ccccc1)SCc1ccccc1` (stereo not given) [CPI-613] + Cc1nc(NC(=O)N2CCC[C@H]2C(N)=O)sc1-c1ccnc(C(C)(C)C(F)(F)F)c1 [Alpelisib] (partner 2 µM), the relative viability (A-427; first compound 5 µM) was 1.02, the relative viability (A-427; first compound 15.81 µM) was 1.06 and the relative viability (A-427; first compound 50 µM) was 1.01. It also gave a relative viability (A-427; first compound 158.11 µM) of 0.985, a relative viability (A-427; first compound 500 µM) of 0.857 and a relative viability (ABC-1; first compound 5 µM) of 1.02. It also gave a relative viability (ABC-1; first compound 15.81 µM) of 1.2, a relative viability (ABC-1; first compound 50 µM) of 1.26 and a relative viability (ABC-1; first compound 158.11 µM) of 0.39. It also gave a relative viability (ABC-1; first compound 500 µM) of 0.223, a relative viability (CAL-12T; first compound 5 µM) of 1 and a relative viability (CAL-12T; first compound 15.81 µM) of 1.11. For the same compound, the relative viability (CAL-12T; first compound 50 µM) was 1.14, the relative viability (CAL-12T; first compound 158.11 µM) was 0.0352 and the relative viability (CAL-12T; first compound 500 µM) was 0.0082. The relative viability (H3255; first compound 5 µM) was 0.695, the relative viability (H3255; first compound 15.81 µM) was 0.576 and the relative viability (H3255; first compound 50 µM) was 0.695. It also gave a relative viability (H3255; first compound 158.11 µM) of 0.639, a relative viability (H3255; first compound 500 µM) of 0.672 and a relative viability (LCLC-97TM1; first compound 5 µM) of 0.216. For the same compound, the relative viability (LCLC-97TM1; first compound 15.81 µM) was 0.254, the relative viability (LCLC-97TM1; first compound 50 µM) was 0.311 and the relative viability (LCLC-97TM1; first compound 158.11 µM) was 0.139. It also gave a relative viability (LCLC-97TM1; first compound 500 µM) of 0.0641, a relative viability (LK-2; first compound 5 µM) of 1.01 and a relative viability (LK-2; first compound 15.81 µM) of 0.98. The relative viability (LK-2; first compound 50 µM) was 1.06, the relative viability (LK-2; first compound 158.11 µM) was 1.16 and the relative viability (LK-2; first compound 500 µM) was 0.82. The relative viability (NCI-H1355; first compound 5 µM) was 0.834, the relative viability (NCI-H1355; first compound 15.81 µM) was 0.813 and the relative viability (NCI-H1355; first compound 50 µM) was 0.918. For the same compound, the relative viability (NCI-H1355; first compound 158.11 µM) was 0.413, the relative viability (NCI-H1355; first compound 500 µM) was 0.134 and the relative viability (NCI-H1395; first compound 5 µM) was 0.988. For the same compound, the relative viability (NCI-H1395; first compound 15.81 µM) was 1.08, the relative viability (NCI-H1395; first compound 50 µM) was 1.27 and the relative viability (NCI-H1395; first compound 158.11 µM) was 0.99. For the same compound, the relative viability (NCI-H1395; first compound 500 µM) was 0.75, the relative viability (NCI-H1651; first compound 5 µM) was 0.969 and the relative viability (NCI-H1651; first compound 15.81 µM) was 0.895. For the same compound, the relative viability (NCI-H1651; first compound 50 µM) was 0.967, the relative viability (NCI-H1651; first compound 158.11 µM) was 0.41 and the relative viability (NCI-H1651; first compound 500 µM) was 0.116. For the same compound, the relative viability (NCI-H1666; first compound 5 µM) was 0.935, the relative viability (NCI-H1666; first compound 15.81 µM) was 0.896 and the relative viability (NCI-H1666; first compound 50 µM) was 1.27. For the same compound, the relative viability (NCI-H1666; first compound 158.11 µM) was 0.158, the relative viability (NCI-H1666; first compound 500 µM) was 0.138 and the relative viability (NCI-H1792; first compound 5 µM) was 0.675. The relative viability (NCI-H1792; first compound 15.81 µM) was 0.646, the relative viability (NCI-H1792; first compound 50 µM) was 0.71 and the relative viability (NCI-H1792; first compound 158.11 µM) was 0.555. It also gave a relative viability (NCI-H1792; first compound 500 µM) of 0.709, a relative viability (NCI-H1915; first compound 5 µM) of 1.12 and a relative viability (NCI-H1915; first compound 15.81 µM) of 1.04. It also gave a relative viability (NCI-H1915; first compound 50 µM) of 1.01, a relative viability (NCI-H1915; first compound 158.11 µM) of 0.925 and a relative viability (NCI-H1915; first compound 500 µM) of 0.926. The relative viability (NCI-H2085; first compound 5 µM) was 1.01, the relative viability (NCI-H2085; first compound 15.81 µM) was 0.927 and the relative viability (NCI-H2085; first compound 50 µM) was 0.906. For the same compound, the relative viability (NCI-H2085; first compound 158.11 µM) was 0.591, the relative viability (NCI-H2085; first compound 500 µM) was 0.242 and the relative viability (NCI-H2087; first compound 5 µM) was 1.14. It also gave a relative viability (NCI-H2087; first compound 15.81 µM) of 0.95, a relative viability (NCI-H2087; first compound 50 µM) of 0.95 and a relative viability (NCI-H2087; first compound 158.11 µM) of 0.0725. It also gave a relative viability (NCI-H2087; first compound 500 µM) of 0.0158, a relative viability (NCI-H2228; first compound 5 µM) of 0.799 and a relative viability (NCI-H2228; first compound 15.81 µM) of 0.6. It also gave a relative viability (NCI-H2228; first compound 50 µM) of 0.547, a relative viability (NCI-H2228; first compound 158.11 µM) of 0.344 and a relative viability (NCI-H2228; first compound 500 µM) of 0.0239. It also gave a relative viability (NCI-H322M; first compound 5 µM) of 0.746, a relative viability (NCI-H322M; first compound 15.81 µM) of 0.721 and a relative viability (NCI-H322M; first compound 50 µM) of 0.729. The relative viability (NCI-H322M; first compound 158.11 µM) was 0.416, the relative viability (NCI-H322M; first compound 500 µM) was 0.757 and the relative viability (NCI-H358; first compound 5 µM) was 0.851. The relative viability (NCI-H358; first compound 15.81 µM) was 0.742, the relative viability (NCI-H358; first compound 50 µM) was 0.912 and the relative viability (NCI-H358; first compound 158.11 µM) was 0.261. For the same compound, the relative viability (NCI-H358; first compound 500 µM) was 0.0364, the relative viability (NCI-H661; first compound 5 µM) was 0.68 and the relative viability (NCI-H661; first compound 15.81 µM) was 0.515. It also gave a relative viability (NCI-H661; first compound 50 µM) of 0.939, a relative viability (NCI-H661; first compound 158.11 µM) of 0.594 and a relative viability (NCI-H661; first compound 500 µM) of 0.608. The relative viability (NCI-H838; first compound 5 µM) was 0.979, the relative viability (NCI-H838; first compound 15.81 µM) was 0.922 and the relative viability (NCI-H838; first compound 50 µM) was 0.91. The relative viability (NCI-H838; first compound 158.11 µM) was 0.589, the relative viability (NCI-H838; first compound 500 µM) was 0.0842 and the relative viability (PC-14; first compound 5 µM) was 0.97. It also gave a relative viability (PC-14; first compound 15.81 µM) of 0.884, a relative viability (PC-14; first compound 50 µM) of 0.849 and a relative viability (PC-14; first compound 158.11 µM) of 1.01. The relative viability (PC-14; first compound 500 µM) was 0.863, the relative viability (PC-3 [JPC-3]; first compound 5 µM) was 1.05 and the relative viability (PC-3 [JPC-3]; first compound 15.81 µM) was 0.943. For the same compound, the relative viability (PC-3 [JPC-3]; first compound 50 µM) was 0.934, the relative viability (PC-3 [JPC-3]; first compound 158.11 µM) was 0.921 and the relative viability (PC-3 [JPC-3]; first compound 500 µM) was 0.903. It also gave a relative viability (SK-MES-1; first compound 5 µM) of 0.894, a relative viability (SK-MES-1; first compound 15.81 µM) of 0.982 and a relative viability (SK-MES-1; first compound 50 µM) of 0.784. For the same compound, the relative viability (SK-MES-1; first compound 158.11 µM) was 0.724, the relative viability (SK-MES-1; first compound 500 µM) was 0.785 and the relative viability (UMC-11; first compound 5 µM) was 0.89. It also gave a relative viability (UMC-11; first compound 15.81 µM) of 0.964, a relative viability (UMC-11; first compound 50 µM) of 1.02 and a relative viability (UMC-11; first compound 158.11 µM) of 0.398. For the same compound, the relative viability (UMC-11; first compound 500 µM) was 0.0725.
